# Species on record: Rattus norvegicus
# Assay: Open TG-GATES - Regimen: Daily Repeat
# Format: toxicity, organism-based, Sprague-Dawley
# Parameters: regimen Daily Repeat, gender Male, age 6 weeks
# Conditions: in vivo, po, 2 mg/kg, route gavage, dose level Low; for APTT / Bas / Eos / Fbg / Hb / Lym / MCH / MCHC / MCV / Mono / Neu / PT / Plat / RBC / Ret / WBC: tissue Blood; for KIDNEY_L / KIDNEY_R / KIDNEY_TOTAL: tissue Kidney; for LIVER: tissue Liver; for ALP / ALT / AST / BUN / CRE / Ca / Cl / DBIL / GLC / IP / K / LDH / Na / PL / RALB / TBIL / TC / TG / TP / gamma-GTP: tissue Plasma
smiles,measurement,setting,value
OCCN1CCN(CCCN2c3ccccc3Sc3ccc(C(F)(F)F)cc32)CC1 [FLUPHENAZINE],TERMINAL_BW,"72 h, time 3 day",226 g
same,APTT,"72 h, time 3 day",16.5 s
same,Bas,"72 h, time 3 day",0%
same,Eos,"72 h, time 3 day",1%
same,Fbg,"72 h, time 3 day",221.4 mg/dL
same,Hb,"72 h, time 3 day",13.7 g/dL
same,Lym,"72 h, time 3 day",80%
same,MCH,"72 h, time 3 day",22.3 pg
same,MCHC,"72 h, time 3 day",33.6%
same,MCV,"72 h, time 3 day",66.3 fL
same,Mono,"72 h, time 3 day",6.8%
same,Neu,"72 h, time 3 day",12.6%
same,PT,"72 h, time 3 day",12.2 s
same,Plat,"72 h, time 3 day",101.3 x10_4/uL
same,RBC,"72 h, time 3 day",613 x10_4/ul
same,Ret,"72 h, time 3 day",5.3%
same,WBC,"72 h, time 3 day",100.9 x10_2/uL
same,KIDNEY_L,"72 h, time 3 day",1 g
same,KIDNEY_R,"72 h, time 3 day",1 g
same,KIDNEY_TOTAL,"72 h, time 3 day",2 g
same,LIVER,"72 h, time 3 day",11.4 g
same,ALP,"72 h, time 3 day",869.2 IU/L
same,ALT,"72 h, time 3 day",36 IU/L
same,AST,"72 h, time 3 day",69.6 IU/L
same,BUN,"72 h, time 3 day",20.4 mg/dL
same,CRE,"72 h, time 3 day",0.5 mg/dL
same,Ca,"72 h, time 3 day",11 mg/dL
same,Cl,"72 h, time 3 day",104.6 meq/L
same,DBIL,"72 h, time 3 day",0.008 mg/dL
same,GLC,"72 h, time 3 day",194.6 mg/dL
same,IP,"72 h, time 3 day",8.5 mg/dL
same,K,"72 h, time 3 day",4.8 meq/L
same,LDH,"72 h, time 3 day",156.6 IU/L
same,Na,"72 h, time 3 day",137.6 meq/L
same,PL,"72 h, time 3 day",172.8 mg/dL
same,RALB,"72 h, time 3 day",4.1 g/dL
same,TBIL,"72 h, time 3 day",0.3 mg/dL
same,TC,"72 h, time 3 day",85.2 mg/dL
same,TG,"72 h, time 3 day",95 mg/dL
same,TP,"72 h, time 3 day",5.9 g/dL
same,gamma-GTP,"72 h, time 3 day",0.6 IU/L
same,TERMINAL_BW,"[…], time 7 day",257.2 g
same,TERMINAL_BW,"[…], time 14 day",299.4 g
same,TERMINAL_BW,"[…], time 28 day",362.5 g
same,APTT,"[…], time 7 day",16.8 s
same,Bas,"[…], time 7 day",0%
same,Eos,"[…], time 7 day",0.8%
same,Fbg,"[…], time 7 day",219.6 mg/dL
same,Hb,"[…], time 7 day",13.7 g/dL
same,Lym,"[…], time 7 day",83%
same,MCH,"[…], time 7 day",21 pg
same,MCHC,"[…], time 7 day",33.6%
same,MCV,"[…], time 7 day",62.5 fL
same,Mono,"[…], time 7 day",3%
same,Neu,"[…], time 7 day",13.2%
same,PT,"[…], time 7 day",12.1 s
same,Plat,"[…], time 7 day",103.7 x10_4/uL
same,RBC,"[…], time 7 day",652.6 x10_4/ul
same,Ret,"[…], time 7 day",4.5%
same,WBC,"[…], time 7 day",106.2 x10_2/uL
same,APTT,"[…], time 14 day",16.8 s
same,Bas,"[…], time 14 day",0%
same,Eos,"[…], time 14 day",0.4%
same,Fbg,"[…], time 14 day",223.2 mg/dL
same,Hb,"[…], time 14 day",14.3 g/dL
same,Lym,"[…], time 14 day",83.2%
same,MCH,"[…], time 14 day",20.6 pg
same,MCHC,"[…], time 14 day",33.5%
same,MCV,"[…], time 14 day",61.4 fL
same,Mono,"[…], time 14 day",5.4%
same,Neu,"[…], time 14 day",11%
same,PT,"[…], time 14 day",11.9 s
same,Plat,"[…], time 14 day",108 x10_4/uL
same,RBC,"[…], time 14 day",696 x10_4/ul
same,Ret,"[…], time 14 day",3%
same,WBC,"[…], time 14 day",149.6 x10_2/uL
same,APTT,"[…], time 28 day",17.2 s
same,Bas,"[…], time 28 day",0%
same,Eos,"[…], time 28 day",1%
same,Fbg,"[…], time 28 day",211.6 mg/dL
same,Hb,"[…], time 28 day",14.9 g/dL
same,Lym,"[…], time 28 day",84%
same,MCH,"[…], time 28 day",19.3 pg
same,MCHC,"[…], time 28 day",33.4%
same,MCV,"[…], time 28 day",57.7 fL
same,Mono,"[…], time 28 day",3.6%
same,Neu,"[…], time 28 day",11.8%
same,PT,"[…], time 28 day",12.1 s
same,Plat,"[…], time 28 day",95.6 x10_4/uL
same,RBC,"[…], time 28 day",775.2 x10_4/ul
same,Ret,"[…], time 28 day",2.4%
same,WBC,"[…], time 28 day",160.4 x10_2/uL
same,KIDNEY_L,"[…], time 7 day",1.1 g
same,KIDNEY_R,"[…], time 7 day",1.1 g
same,KIDNEY_TOTAL,"[…], time 7 day",2.2 g
same,KIDNEY_L,"[…], time 14 day",1.2 g
same,KIDNEY_R,"[…], time 14 day",1.1 g
same,KIDNEY_TOTAL,"[…], time 14 day",2.3 g
same,KIDNEY_L,"[…], time 28 day",1.3 g
same,KIDNEY_R,"[…], time 28 day",1.3 g
same,KIDNEY_TOTAL,"[…], time 28 day",2.6 g
same,LIVER,"[…], time 7 day",12.4 g
same,LIVER,"[…], time 14 day",13.5 g
same,LIVER,"[…], time 28 day",15.3 g
same,ALP,"[…], time 7 day",761.6 IU/L
same,ALT,"[…], time 7 day",30.4 IU/L
same,AST,"[…], time 7 day",60.4 IU/L
same,BUN,"[…], time 7 day",18.8 mg/dL
same,CRE,"[…], time 7 day",0.5 mg/dL
same,Ca,"[…], time 7 day",10.4 mg/dL
same,Cl,"[…], time 7 day",105.2 meq/L
same,DBIL,"[…], time 7 day",0.004 mg/dL
same,GLC,"[…], time 7 day",187.6 mg/dL
same,IP,"[…], time 7 day",7.9 mg/dL
same,K,"[…], time 7 day",4.7 meq/L
same,LDH,"[…], time 7 day",83.6 IU/L
same,Na,"[…], time 7 day",137.6 meq/L
same,PL,"[…], time 7 day",157.6 mg/dL
same,RALB,"[…], time 7 day",4 g/dL
same,TBIL,"[…], time 7 day",0.3 mg/dL
same,TC,"[…], time 7 day",74 mg/dL
same,TG,"[…], time 7 day",146.6 mg/dL
same,TP,"[…], time 7 day",5.9 g/dL
same,gamma-GTP,"[…], time 7 day",1.4 IU/L
same,ALP,"[…], time 14 day",728.4 IU/L
same,ALT,"[…], time 14 day",28 IU/L
same,AST,"[…], time 14 day",56.6 IU/L
same,BUN,"[…], time 14 day",19.6 mg/dL
same,CRE,"[…], time 14 day",0.6 mg/dL
same,Ca,"[…], time 14 day",10.8 mg/dL
same,Cl,"[…], time 14 day",103.4 meq/L
same,DBIL,"[…], time 14 day",0 mg/dL
same,GLC,"[…], time 14 day",179.4 mg/dL
same,IP,"[…], time 14 day",7.7 mg/dL
same,K,"[…], time 14 day",4.4 meq/L
same,LDH,"[…], time 14 day",92.4 IU/L
same,Na,"[…], time 14 day",135.2 meq/L
same,PL,"[…], time 14 day",147.8 mg/dL
same,RALB,"[…], time 14 day",4.1 g/dL
same,TBIL,"[…], time 14 day",0.2 mg/dL
same,TC,"[…], time 14 day",66.8 mg/dL
same,TG,"[…], time 14 day",160.2 mg/dL
same,TP,"[…], time 14 day",6 g/dL
same,gamma-GTP,"[…], time 14 day",1 IU/L
same,ALP,"[…], time 28 day",528.8 IU/L
same,ALT,"[…], time 28 day",29.6 IU/L
same,AST,"[…], time 28 day",59.6 IU/L
same,BUN,"[…], time 28 day",19.8 mg/dL
same,CRE,"[…], time 28 day",0.6 mg/dL
same,Ca,"[…], time 28 day",10.5 mg/dL
same,Cl,"[…], time 28 day",106.8 meq/L
same,DBIL,"[…], time 28 day",0.002 mg/dL
same,GLC,"[…], time 28 day",179.2 mg/dL
same,IP,"[…], time 28 day",6.6 mg/dL
same,K,"[…], time 28 day",4.4 meq/L
same,LDH,"[…], time 28 day",79.6 IU/L
same,Na,"[…], time 28 day",139.8 meq/L
same,PL,"[…], time 28 day",151.4 mg/dL
same,RALB,"[…], time 28 day",4.1 g/dL
same,TBIL,"[…], time 28 day",0.2 mg/dL
same,TC,"[…], time 28 day",73.2 mg/dL
same,TG,"[…], time 28 day",131 mg/dL
same,TP,"[…], time 28 day",6.3 g/dL
same,gamma-GTP,"[…], time 28 day",2 IU/L
